Experimental data reported in patent publication US20040242694A1, “Remedial agent for cardiac failure” (priority 2001, published 2004).

Columns and labels:
[1] = tested on: animal test mode of ventricular failure; settings: J Pharmacol Exp Ther 291(2) 799-811 (1999); Circ Res 85(4) 364-376 (1999); cited from earlier work
mice = assay: Toxicity, oral administration to mice; format: in vivo
Protocol: It was considered that the toxicities of the compounds in the present invention could be very low and safe to use as a medicine. For example, the lowest lethal dose in oral administration of compound (II) to mice was 2000 mg/kg.

[2] = tested on: Dahl's salt-sensitive rat; assay: P-V curve of removed hearts under perfuse by Langendorff's method; format: ex vivo; settings: compared with the control group; Langendorff perfusion
Protocol: In the above model of cardiac failure using Dahl's salt-sensitive rat, internal pressure and volume of left ventricle of hearts removed from 11, 15, and 17 weeks rats were measured under perfuse by Langendorff's method.

Structure (SMILES)	effect on animal test model of ventricular failure [1]	lowest lethal dose (mice) [mg/kg]	P-V curve (internal pressure and volume of left ventricle) [2]
CC(C)[C@H](NS(=O)(=O)c1ccc(-c2ccc(Br)cc2)cc1)C(=O)O [PD166793]	effective	–	–
CCOCOC[C@H](C[C@H](C)C(=O)NO)NC(=O)c1ccc(Oc2ccccc2)cc1 [compound (II), N-hydroxy-5-ethoxymethyloxy-2(S)-methyl-4(S)-(4-phenoxybenzoyl)aminopentanamide]	–	2000	shifts to the left side
